Results taken from patent US20260365670A1, “EGFR INHIBITORS AND USES THEREOF” (DIZAL (JIANGSU) PHARMACEUTICAL CO., LTD., priority 2022, published 2026).
Where two headings read alike, the source gives them in different places.

How the values were obtained:
EGFR Exon19Del = molecular target: T1, EGFR Exon19Del (Homo sapiens, UniProt P00533, DEL746-750); assay: Inhibition of EGFR Exon19Del biochemical enzymatic activity (HTRF); details: read-out: IC50 @Del19
T1 construct: purchased Carna Bio
How it was run: (§1)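 Compounds at varying concentrations were tested against each EGFR form using 1 mM ATP and 1 μM TK Substrate-biotin. Reactions ran 1 h at room temperature in Mg2+/Mn2+ buffer with CHAPS, DTT and 0.5% DMSO. Time-resolved fluorescence gave IC50 by four-parameter fit.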

EGFR (C797S L858R) = molecular target: T2, EGFR (C797S L858R) (Homo sapiens, UniProt P00533, C797S/L858R); assay: Inhibition of EGFR (C797S L858R) biochemical enzymatic activity (HTRF); details: 1 mM ATP
T2 construct: purchased signalchem
How it was run: as §1

EGFR[T790M/C797S/L858R] = molecular target: T3, EGFR[T790M/C797S/L858R] (Homo sapiens, UniProt P00533, C797S/L858R/T790M); assay: Inhibition of EGFR[T790M/C797S/L858R] biochemical enzymatic activity (HTRF); details: 1 mM ATP
T3 construct: purchased Carna Bio
How it was run: as §1

EGFR (d746-750 C797S) = molecular target: T4, EGFR (d746-750 C797S) (Homo sapiens, UniProt P00533, C797S/DEL746-750); assay: Inhibition of EGFR (d746-750 C797S) biochemical enzymatic activity (HTRF); details: 1 mM ATP
T4 construct: purchased signalchem
How it was run: as §1

[1] = test system: Ba/F3 cells expressing EGFR mutations; assay: Cell proliferation assay, Ba/F3 cells expressing EGFR mutations (CellTiter-Glo, 72 hours); assay type: cell-based
How it was run: (§2)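 GI50 is the concentration giving 50% proliferation inhibition. Growth for this was normalised to a baseline viability reading taken when compound was added, and to DMSO wells. PC-9 (500 cells/well) and mutant-EGFR Ba/F3 (5000 cells/well) are treated after overnight seeding in RPMI1640-based medium.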

[2] = molecular target: T5, EGFR[T790M/C797S/d746-750] (Homo sapiens, UniProt P00533, C797S/DEL746-750/T790M); assay: Inhibition of EGFR[T790M/C797S/d746-750] biochemical enzymatic activity (HTRF)
T5 construct: purchased Carna Bio
How it was run: as §1

A-431 = assay: Cell proliferation assay, A-431 cells (GI50, Table 6); assay type: cell-based
EGFR Exon19Del/T790M = molecular target: T6, EGFR Exon19Del/T790M (Homo sapiens, UniProt P00533, DEL746-750/T790M); assay: Inhibition of EGFR Exon19Del/T790M biochemical enzymatic activity (HTRF); details: 1 mM ATP
T6 construct: purchased Carna Bio
How it was run: as §1

PC-9 = assay: Cell proliferation assay, PC-9 cells (CellTiter-Glo, 72 hours); assay type: cell-based; details: PC9 cells, read-out: GI50 PC9
How it was run: as §2

EGFR L858R = molecular target: T7, EGFR L858R (Homo sapiens, UniProt P00533, L858R); assay: Inhibition of EGFR L858R biochemical enzymatic activity (HTRF); details: 1 mM ATP
T7 construct: purchased Carna Bio
How it was run: as §1

EGFR L858R/T790M = molecular target: T8, EGFR L858R/T790M (Homo sapiens, UniProt P00533, L858R/T790M); assay: Inhibition of EGFR L858R/T790M biochemical enzymatic activity (HTRF); details: 1 mM ATP
T8 construct: purchased Carna Bio
How it was run: as §1

EGFR wild type = molecular target: T9, EGFR wild type (Homo sapiens, UniProt P00533); assay: Inhibition of EGFR wild type biochemical enzymatic activity (HTRF); details: 1 mM ATP
T9 construct: purchased Carna Bio
How it was run: as §1

[3] = EGFR Exon19Del, 1 mM ATP, 1 h at room temperature
[4] = EGFR (C797S L858R), 1 h at room temperature, read-out: IC50 @L858-C797S
[5] = EGFR[T790M/C797S/L858R], 1 h at room temperature, read-out: IC50 @T790M- C797S - L858R
[6] = EGFR (d746-750 C797S), 1 h at room temperature, read-out: IC50 @Del19-C797S
[7] = BaF3 cells, EGFR DEL19 - C797S, read-out: GI50 DEL19 - C797S/BaF3
[8] = BaF3 cells, EGFR DEL19 - T790-C797S, read-out: GI50 DEL19 - T790-C797S/BaF3
[9] = BaF3 cells, EGFR L858R - C797S, read-out: GI50 L858R - C797S/BaF3
[10] = BaF3 cells, EGFR L858R - T790-C797S, read-out: GI50 L858R - T790-C797S/BaF3
[11] = BaF3 cells, EGFR L858R - T790M, read-out: GI50 L858R - T790M/BaF3
[12] = BaF3 cells, EGFR L858R, read-out: GI50 L858R/BaF3
[13] = EGFR DEL19 - T790M, read-out: GI50 DEL19 - T790M
[14] = EGFR[T790M/C797S/d746-750], 1 mM ATP, 1 h at room temperature, read-out: IC50 @T790M - C797S - Del19
[15] = EGFR Exon19Del/T790M, 1 h at room temperature, read-out: IC50 @Del19-T790M
[16] = 1 h at room temperature, read-out: IC50 @L858R
[17] = EGFR L858R/T790M, 1 h at room temperature, read-out: IC50 @L858R-T790M
[18] = EGFR wild type, 1 h at room temperature, read-out: IC50 @WT
[19] = EGFR Del19, 1 mM ATP, 1 h, room temperature
[20] = EGFR L858-C797S, 1 h, room temperature, read-out: IC50 (nM) @L858-C797S
[21] = EGFR T790M-C797S-L858R, 1 h, room temperature, read-out: IC50 (nM) @T790M- C797S - L858R
[22] = EGFR Del19-C797S, 1 h, room temperature, read-out: IC50 (nM) @Del19-C797S
[23] = Mus musculus, BaF3, 72 h, BaF3 cells, EGFR DEL19 - C797S, read-out: GI50 DEL19 - C797S/BaF3
[24] = Mus musculus, BaF3, 72 h, BaF3 cells, EGFR DEL19 - T790-C797S, read-out: GI50 DEL19 - T790-C797S/BaF3
[25] = Mus musculus, BaF3, 72 h, BaF3 cells, EGFR L858R - C797S, read-out: GI50 L858R - C797S/BaF3
[26] = Mus musculus, BaF3, 72 h, BaF3 cells, EGFR L858R - T790-C797S, read-out: GI50 L858R - T790-C797S/BaF3
[27] = Mus musculus, BaF3, 72 h, BaF3 cells, EGFR L858R - T790M, read-out: GI50 L858R - T790M/BaF3
[28] = Mus musculus, BaF3, 72 h, BaF3 cells, EGFR L858R, read-out: GI50 L858R/BaF3
[29] = Mus musculus, BaF3, 72 h, EGFR DEL19 - T790M, read-out: GI50 DEL19 - T790M
[30] = EGFR T790M-C797S-Del19, 1 mM ATP, 1 h, room temperature, read-out: IC50 (nM) @T790M - C797S - Del19
[31] = Homo sapiens, A-431, A-431 cells
[32] = EGFR Del19-T790M, 1 h, room temperature, read-out: IC50 (nM) @Del19-T790M
[33] = 1 h, room temperature, read-out: IC50 (nM) @L858R
[34] = EGFR L858R-T790M, 1 h, room temperature, read-out: IC50 (nM) @L858R-T790M
[35] = EGFR WT, 1 h, room temperature, read-out: IC50 (nM) @WT

T9 sequence (P00533 25-1210): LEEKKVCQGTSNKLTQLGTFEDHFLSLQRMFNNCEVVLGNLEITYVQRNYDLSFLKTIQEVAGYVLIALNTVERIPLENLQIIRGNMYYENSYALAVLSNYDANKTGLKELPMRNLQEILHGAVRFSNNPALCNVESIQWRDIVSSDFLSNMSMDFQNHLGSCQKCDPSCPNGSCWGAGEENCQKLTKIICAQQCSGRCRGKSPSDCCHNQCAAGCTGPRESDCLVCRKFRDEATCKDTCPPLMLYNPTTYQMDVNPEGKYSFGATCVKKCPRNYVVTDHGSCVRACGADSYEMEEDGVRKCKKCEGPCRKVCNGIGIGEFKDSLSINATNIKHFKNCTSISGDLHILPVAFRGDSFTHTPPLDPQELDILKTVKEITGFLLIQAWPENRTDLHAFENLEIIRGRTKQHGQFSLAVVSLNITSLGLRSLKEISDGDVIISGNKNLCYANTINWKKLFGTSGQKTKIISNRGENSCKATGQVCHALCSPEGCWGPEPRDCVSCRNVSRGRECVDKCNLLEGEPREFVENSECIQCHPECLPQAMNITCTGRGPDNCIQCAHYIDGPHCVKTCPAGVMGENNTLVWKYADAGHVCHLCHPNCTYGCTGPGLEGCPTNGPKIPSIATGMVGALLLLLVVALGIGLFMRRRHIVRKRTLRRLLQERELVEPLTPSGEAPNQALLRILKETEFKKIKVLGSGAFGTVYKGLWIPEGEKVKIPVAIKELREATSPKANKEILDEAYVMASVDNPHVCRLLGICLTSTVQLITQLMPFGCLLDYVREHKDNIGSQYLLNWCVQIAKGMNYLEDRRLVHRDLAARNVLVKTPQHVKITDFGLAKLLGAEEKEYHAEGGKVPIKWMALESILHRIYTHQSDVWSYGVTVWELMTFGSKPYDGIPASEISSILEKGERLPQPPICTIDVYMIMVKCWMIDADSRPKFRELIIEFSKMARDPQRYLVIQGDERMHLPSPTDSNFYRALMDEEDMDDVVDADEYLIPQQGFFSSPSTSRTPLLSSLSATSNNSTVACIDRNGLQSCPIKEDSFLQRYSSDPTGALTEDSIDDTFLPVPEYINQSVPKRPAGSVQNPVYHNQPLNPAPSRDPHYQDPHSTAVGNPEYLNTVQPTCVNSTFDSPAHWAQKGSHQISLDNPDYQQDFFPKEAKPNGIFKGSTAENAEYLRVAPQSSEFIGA
T6 sequence (P00533 with tags, fused parts or gaps DEL746-750/T790M limits assumed): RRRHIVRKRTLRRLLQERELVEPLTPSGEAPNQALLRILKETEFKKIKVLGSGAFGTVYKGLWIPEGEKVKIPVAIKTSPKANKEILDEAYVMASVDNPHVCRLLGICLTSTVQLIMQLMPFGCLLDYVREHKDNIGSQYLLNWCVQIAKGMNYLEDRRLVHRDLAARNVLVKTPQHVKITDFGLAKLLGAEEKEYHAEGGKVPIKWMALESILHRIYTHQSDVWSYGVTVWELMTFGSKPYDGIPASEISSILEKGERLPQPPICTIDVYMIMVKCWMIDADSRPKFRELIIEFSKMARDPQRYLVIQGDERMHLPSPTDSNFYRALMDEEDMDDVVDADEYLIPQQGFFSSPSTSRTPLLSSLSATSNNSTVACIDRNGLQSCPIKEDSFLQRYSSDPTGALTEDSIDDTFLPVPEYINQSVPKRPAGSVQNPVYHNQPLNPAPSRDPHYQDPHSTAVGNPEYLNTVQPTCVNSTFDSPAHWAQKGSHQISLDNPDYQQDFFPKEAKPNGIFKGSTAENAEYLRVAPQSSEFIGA
T2 sequence (P00533 25-1210 C797S/L858R): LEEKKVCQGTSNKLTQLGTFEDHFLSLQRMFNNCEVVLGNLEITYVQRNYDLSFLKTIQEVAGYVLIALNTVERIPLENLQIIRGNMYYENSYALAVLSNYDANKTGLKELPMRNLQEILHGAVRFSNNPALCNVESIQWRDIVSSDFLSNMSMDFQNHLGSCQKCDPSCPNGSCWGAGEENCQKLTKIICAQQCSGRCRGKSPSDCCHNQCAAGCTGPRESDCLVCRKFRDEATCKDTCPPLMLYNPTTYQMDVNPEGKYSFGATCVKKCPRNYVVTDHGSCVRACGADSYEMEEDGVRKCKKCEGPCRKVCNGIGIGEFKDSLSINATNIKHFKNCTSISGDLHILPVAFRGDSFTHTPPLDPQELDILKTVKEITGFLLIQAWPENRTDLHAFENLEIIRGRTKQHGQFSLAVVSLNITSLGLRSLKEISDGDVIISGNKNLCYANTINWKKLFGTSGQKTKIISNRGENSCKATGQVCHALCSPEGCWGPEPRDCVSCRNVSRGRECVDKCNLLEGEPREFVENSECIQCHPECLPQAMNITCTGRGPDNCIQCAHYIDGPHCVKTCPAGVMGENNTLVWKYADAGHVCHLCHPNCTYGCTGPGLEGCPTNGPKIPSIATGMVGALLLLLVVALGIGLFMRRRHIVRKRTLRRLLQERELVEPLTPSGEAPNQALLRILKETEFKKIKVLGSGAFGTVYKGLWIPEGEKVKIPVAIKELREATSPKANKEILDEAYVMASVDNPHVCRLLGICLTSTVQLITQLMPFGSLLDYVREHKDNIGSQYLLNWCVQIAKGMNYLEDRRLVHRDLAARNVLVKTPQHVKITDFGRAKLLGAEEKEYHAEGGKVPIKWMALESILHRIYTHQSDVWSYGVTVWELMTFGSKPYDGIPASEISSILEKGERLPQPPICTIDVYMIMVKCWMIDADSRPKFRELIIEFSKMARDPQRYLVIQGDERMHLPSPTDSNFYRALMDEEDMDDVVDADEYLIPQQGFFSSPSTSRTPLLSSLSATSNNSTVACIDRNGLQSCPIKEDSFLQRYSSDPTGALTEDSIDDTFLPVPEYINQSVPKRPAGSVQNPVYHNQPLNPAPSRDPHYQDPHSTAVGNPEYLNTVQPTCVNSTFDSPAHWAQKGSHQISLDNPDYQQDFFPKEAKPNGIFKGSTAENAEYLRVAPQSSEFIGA
T5 sequence (P00533 with tags, fused parts or gaps DEL746-750/T790M/C797S limits assumed): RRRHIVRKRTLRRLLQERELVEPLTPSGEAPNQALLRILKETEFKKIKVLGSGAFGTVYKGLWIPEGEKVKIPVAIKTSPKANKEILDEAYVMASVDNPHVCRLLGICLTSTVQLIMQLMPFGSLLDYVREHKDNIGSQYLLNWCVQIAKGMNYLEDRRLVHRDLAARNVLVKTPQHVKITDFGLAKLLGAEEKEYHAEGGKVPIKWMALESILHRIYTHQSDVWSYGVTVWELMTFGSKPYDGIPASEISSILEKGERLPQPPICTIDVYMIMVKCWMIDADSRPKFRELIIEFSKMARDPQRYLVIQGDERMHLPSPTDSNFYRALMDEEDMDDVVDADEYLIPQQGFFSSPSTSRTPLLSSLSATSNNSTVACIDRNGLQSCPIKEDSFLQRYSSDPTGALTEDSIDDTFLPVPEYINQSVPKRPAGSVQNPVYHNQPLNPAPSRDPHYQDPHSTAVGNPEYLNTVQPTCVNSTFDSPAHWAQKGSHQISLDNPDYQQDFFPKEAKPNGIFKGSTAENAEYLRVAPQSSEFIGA
T7 sequence (P00533 25-1210 L858R): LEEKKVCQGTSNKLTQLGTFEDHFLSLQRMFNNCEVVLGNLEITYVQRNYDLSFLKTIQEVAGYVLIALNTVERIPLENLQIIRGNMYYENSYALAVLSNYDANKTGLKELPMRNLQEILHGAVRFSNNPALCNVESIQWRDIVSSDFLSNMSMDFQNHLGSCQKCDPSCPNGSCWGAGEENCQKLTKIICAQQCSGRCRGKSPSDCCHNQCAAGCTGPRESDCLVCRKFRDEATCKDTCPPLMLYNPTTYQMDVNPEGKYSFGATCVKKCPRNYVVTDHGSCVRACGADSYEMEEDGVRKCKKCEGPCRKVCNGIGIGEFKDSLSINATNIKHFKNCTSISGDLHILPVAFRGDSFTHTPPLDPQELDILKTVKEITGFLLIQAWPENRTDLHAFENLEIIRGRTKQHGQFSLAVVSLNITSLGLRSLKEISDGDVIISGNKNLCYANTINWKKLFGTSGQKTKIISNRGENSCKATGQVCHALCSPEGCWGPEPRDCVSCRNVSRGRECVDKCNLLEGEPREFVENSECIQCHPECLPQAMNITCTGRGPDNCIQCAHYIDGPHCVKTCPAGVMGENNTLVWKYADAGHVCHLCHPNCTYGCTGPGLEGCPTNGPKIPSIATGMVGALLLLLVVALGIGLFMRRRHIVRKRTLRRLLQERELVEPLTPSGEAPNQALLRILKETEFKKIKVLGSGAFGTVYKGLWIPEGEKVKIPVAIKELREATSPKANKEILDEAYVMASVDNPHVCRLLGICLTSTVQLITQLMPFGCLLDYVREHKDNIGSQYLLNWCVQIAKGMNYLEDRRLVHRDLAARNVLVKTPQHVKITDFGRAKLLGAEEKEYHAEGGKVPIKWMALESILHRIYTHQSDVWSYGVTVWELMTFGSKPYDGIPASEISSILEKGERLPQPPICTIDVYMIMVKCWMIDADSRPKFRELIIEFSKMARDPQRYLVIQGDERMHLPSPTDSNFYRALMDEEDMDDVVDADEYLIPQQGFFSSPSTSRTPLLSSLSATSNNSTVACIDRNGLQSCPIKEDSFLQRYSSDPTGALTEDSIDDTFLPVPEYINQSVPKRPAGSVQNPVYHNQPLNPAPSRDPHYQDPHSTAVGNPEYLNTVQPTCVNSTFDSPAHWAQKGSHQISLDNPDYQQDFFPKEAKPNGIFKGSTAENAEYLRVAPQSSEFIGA

IC50 (EGFR Exon19Del; [3]) [nM]	IC50 (EGFR (C797S L858R); [4]) [nM]	IC50 (EGFR Exon19Del; [19]) [nM]	IC50 (EGFR (C797S L858R); [20]) [nM]	IC50 (EGFR[T790M/C797S/L858R]; [21]) [nM]	IC50 (EGFR (d746-750 C797S); [22]) [nM]	GI50 [1, 23] [nM]	GI50 [1, 24] [nM]	GI50 [1, 25] [nM]	GI50 [1, 26] [nM]	GI50 [1, 27] [nM]	GI50 [1, 28] [nM]	GI50 [1, 29] [nM]	IC50 [2, 30] [nM]	GI50 (A-431; [31]) [nM]	IC50 (EGFR Exon19Del/T790M; [32]) [nM]	GI50 (PC-9; Homo sapiens, PC-9, 72 h) [nM]	IC50 (EGFR L858R; [33]) [nM]	IC50 (EGFR L858R/T790M; [34]) [nM]	IC50 (EGFR wild type; [35]) [nM]	Structure (SMILES)	other results
> 5000	> 5000	–	–	–	–	–	–	–	–	–	–	–	–	–	–	–	–	–	–	Cc1cc2cc(n1)-c1cnn(C)c1OCCN1CC3CCC(C3)(C1)n1c(nc3ccc(N4CCN(C5COC5)CC4)cc31)NC2=O (single isomer, unassigned) [Example B58A]	IC50 (EGFR[T790M/C797S/L858R]; [5]): > 5000 nM; IC50 (EGFR (d746-750 C797S); [6]): 3890 nM; GI50 [1, 7]: 163 nM; GI50 [1, 8]: 229 nM; GI50 [1, 9]: 828 nM; GI50 [1, 10]: 90 nM; GI50 [1, 11]: 307 nM; GI50 [1, 12]: 1560 nM; GI50 [1, 13]: 378 nM; IC50 [2, 14]: > 5000 nM; GI50 (A-431; A-431 cells): 8610 nM; IC50 (EGFR Exon19Del/T790M; [15]): > 5000 nM; GI50 (PC-9): 737 nM; IC50 (EGFR L858R; [16]): > 5000 nM; IC50 (EGFR L858R/T790M; [17]): > 5000 nM; IC50 (EGFR wild type; [18]): > 5000 nM
12	33	–	–	–	–	–	–	–	–	–	–	–	–	–	–	–	–	–	–	Cc1cc2cc(n1)-c1cnn(C)c1OCCN1CC3CCC(C3)(C1)n1c(nc3ccc(N4CCN(C5COC5)CC4)cc31)NC2=O (single isomer, unassigned) [Example B58B]	IC50 (EGFR[T790M/C797S/L858R]; [5]): 3.1 nM; IC50 (EGFR (d746-750 C797S); [6]): 4.2 nM; GI50 [1, 7]: 2 nM; GI50 [1, 8]: 2 nM; GI50 [1, 9]: 9 nM; GI50 [1, 10]: 2 nM; GI50 [1, 11]: 2 nM; GI50 [1, 12]: 13 nM; GI50 [1, 13]: 2 nM; IC50 [2, 14]: 3.2 nM; GI50 (A-431; A-431 cells): 532 nM; IC50 (EGFR Exon19Del/T790M; [15]): 5.5 nM; GI50 (PC-9): 9 nM; IC50 (EGFR L858R; [16]): 134 nM; IC50 (EGFR L858R/T790M; [17]): 5.9 nM; IC50 (EGFR wild type; [18]): 2750 nM
–	–	4.7	9.8	10	3.1	1.7	15	23	27	34	21	16	7.6	489	7.9	15	16	11	219	C[C@@H]1CCCOc2ccccc2-c2cc(cn(C)c2=O)C(=O)Nc2nc3ccc(N4CCN(C)CC4)cc3n2C1 [Example A109, (12R)-12,27-dimethyl-17-(4-methylpiperazin-1-yl)-8-oxa-14,21,23,27-tetraazapentacyclo[23.3.1.0^{2,7}.0^{14,22}.0^{15,20}]nonacosa-1(29),2(7),3,5,15,17,19,21,25-nonaene-24,28-dione]	–
–	–	2.8	4.9	6.1	1.7	2.6	26	14	30	50	9.6	22	3.2	529	2.9	112	6.2	5.1	216	C[C@@H]1CCCOc2ccc(F)cc2-c2cc(cn(C)c2=O)C(=O)Nc2nc3ccc(N4CCN(C)CC4)cc3n2C1 [Example A110, (12R)-4-fluoro-12,27-dimethyl-17-(4-methylpiperazin-1-yl)-8-oxa-14,21,23,27-tetraazapentacyclo[23.3.1.0^{2,7}.0^{14,22}.0^{15,20}]nonacosa-1(29),2(7),3,5,15,17,19,21,25-nonaene-24,28-dione]	–
–	–	21	40	63	18	30.3	326	125	309	658	103	325	47	8230	46	334	36	86	607	C[C@@H]1CCCOc2cc(F)c(F)cc2-c2cc(cn(C)c2=O)C(=O)Nc2nc3ccc(N4CCN(C)CC4)cc3n2C1 [Example A111, (12R)-4,5-difluoro-12,27-dimethyl-17-(4-methylpiperazin-1-yl)-8-oxa-14,21,23,27-tetraazapentacyclo[23.3.1.0^{2,7}.0^{14,22}.0^{15,20}]nonacosa-1(29),2(7),3,5,15,17,19,21,25-nonaene-24,28-dione]	–
